The results in this text go back to ChEMBL document CHEMBL4304807, “Modulators of KEAP-1 Activity as Potential Therapies for the Treatment of Neurodegenerative Disorders” (ACS Med Chem Lett, 2019).

Sequence of Kelch-like ECH-associated protein 1 (Q14145 whole entry): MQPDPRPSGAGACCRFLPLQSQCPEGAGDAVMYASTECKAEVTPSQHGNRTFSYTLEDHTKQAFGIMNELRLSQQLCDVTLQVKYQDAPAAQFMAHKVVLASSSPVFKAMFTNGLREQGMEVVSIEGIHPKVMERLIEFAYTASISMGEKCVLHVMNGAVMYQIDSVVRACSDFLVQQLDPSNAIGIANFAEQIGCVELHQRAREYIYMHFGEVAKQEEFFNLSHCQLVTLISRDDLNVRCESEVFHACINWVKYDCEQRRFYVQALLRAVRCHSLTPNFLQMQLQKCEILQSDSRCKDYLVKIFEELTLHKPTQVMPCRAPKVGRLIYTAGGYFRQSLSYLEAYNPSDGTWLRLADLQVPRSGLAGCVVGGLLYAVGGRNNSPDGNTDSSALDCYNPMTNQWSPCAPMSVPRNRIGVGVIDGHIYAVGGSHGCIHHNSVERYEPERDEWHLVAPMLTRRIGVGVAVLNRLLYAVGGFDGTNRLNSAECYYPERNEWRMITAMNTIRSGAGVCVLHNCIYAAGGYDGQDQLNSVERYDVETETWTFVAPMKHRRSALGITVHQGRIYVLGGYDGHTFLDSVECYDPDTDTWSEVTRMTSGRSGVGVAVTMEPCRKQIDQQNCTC

This assay has as its target Kelch-like ECH-associated protein 1 (Homo sapiens, UniProt Q14145). The assay can be described thus: Inhibition of KEAP1 interaction with Nrf2 in human HEK293 cells transfected with ARE-LUC assessed as activation of Nrf2 signaling pathway measured after 18 hrs by steady-Glo luciferase assay. It counts as cell-based.
Usually EC50 stands for the concentration that produces a half-maximal response. With `COC1(c2ncc(F)cc2C(F)F)C=C(C#N)C(=O)C2(CC2)C1` (centres undefined), the EC50 turned out to be 18 nM.

`COC1(c2ncccc2C(F)(F)F)C=C(C#N)C(=O)C(C)(C)C1` (centres undefined): the EC50 was 24 nM.

As to `COC1(c2ncc(F)cc2OC(F)F)C=C(C#N)C(=O)C(C)(C)C1` (centres undefined), the EC50 came out at 8 nM.

Consider `COC1(c2ncc(F)cc2-c2cnc(C)s2)C=C(C#N)C(=O)C(C)(C)C1` (centres undefined), for which the EC50 was 7 nM.
